From patent US9702005B2, “Hepatitis B viral variants with reduced susceptibility to nucleoside analogs and uses thereof” (priority 2002, dated 2017)

How the values were obtained:
[1] = tested on: Wild-type (pPC) HBV reference laboratory strain (genotype D subtype ayw); assay: In vitro drug susceptibility, recombinant HBV/baculovirus in HepG2 cells, wild-type; format: cell-based, hepatitis B virus
Procedure: (§1) The sensitivity/resistance profile of HBV mutants to ADV was examined in vitro using recombinant HBV/baculovirus. The procedure for analyzing the resistance profile is outlined in the following Examples 12-20.
(§2) Sf21 insect cells were maintained in supplemented Grace's insect medium further supplemented with 10% v/v heat-inactivated fetal bovine serum (Gibco BRL, Gaithersburg, Md.) in humidified incubator at 28° C. with CO2. HepG2 cells were maintained in minimal essential medium supplemented with 10% v/v heat-inactivated fetal bovine serum (MEM-FBS). HepG2 cells were grown in humidified 37° C. incubators at 5% v/v CO2.
(§3) The recombinant HBV/baculovirus system used for antiviral testing has been previously described (Delaney et al., Antimicrob Agents Chemother 45(6): 17054013, 2001). In brief, the recombinant transfer vector was created by excising a fragment containing the 1.3X HBV genome construct and cloning it into the multiple cloning region of a baculovirus vector pBlueBac4.5 (Invitrogen, Carlsbad, Calif.). Point mutations were created by site directed mutagenesis using the commercial kits according to the manufacturer's specifications (QuikChange, Stratagene). HBV/baculovirus recombinant clones encoding the reverse transcriptase mutations rtA181T/N236T/N238D and […] in combination with the precore mutation at G1896A (pcW28 stop) or wild-type with respect to codon pcW28, were prepared by site-directed mutagenesis. The nucleotide sequence of the plasmid and the point mutations generated by site directed mutagenesis were confirmed by sequencing using the ABI Prism Big Dye Terminator Cycle Sequencing Ready Reaction Kit according to the manufacturer's specifications (Perkin Elmer, Cetus Norwalk, Conn.).
Purified recombinant transfer vector and linear AcMNPV baculovirus DNA were co-transfected into Sf21 cells using the BacNBlue transfection kit from Invitrogen (Carlsbad, Calif.); recombinant viruses were isolated by plaque assay according to the manufacturer's instructions. […]

HBV rt L180M/M204V = assay: In vitro drug susceptibility, recombinant HBV/baculovirus in HepG2 cells, rt L180M/M204V; format: cell-based, hepatitis B virus
Procedure: as §1, §2
(§4) The recombinant HBV/baculovirus system used for antiviral testing has been previously described (Delaney et al., Antimicrob Agents Chemother 45(6): 17054013, 2001). In brief, the recombinant transfer vector was created by excising a fragment containing the 1.3X HBV genome construct and cloning it into the multiple cloning region of a baculovirus vector pBlueBac4.5 (Invitrogen, Carlsbad, Calif.). […] The nucleotide sequence of the plasmid and the point mutations generated by site directed mutagenesis were confirmed by sequencing using the ABI Prism Big Dye Terminator Cycle Sequencing Ready Reaction Kit according to the manufacturer's specifications (Perkin Elmer, Cetus Norwalk, Conn.). […]

HBV rt A181T/N236T/N238D = assay: In vitro drug susceptibility, recombinant HBV/baculovirus in HepG2 cells, rt A181T/N236T/N238D; format: cell-based, hepatitis B virus
Procedure: as §1, §2, §3
Purified recombinant transfer vector and linear AcMNPV baculovirus DNA were co-transfected into Sf21 cells using the BacNBlue transfection kit from Invitrogen (Carlsbad, Calif.); recombinant viruses were isolated by plaque assay according to the manufacturer's instructions. A series of recombinant viruses were amplified from isolated plaques by infecting 100-mm dishes of Sf21 cells. Viral DNA was extracted from amplified viruses using standard procedures. Purified viral DNA was digested with restriction enzymes and then fractionated by electrophoresis in a 1% […] agarose gel. Southern blotting was performed to determine which virus isolates contained the intact 1.3 HBV construct. A Boehringer Mannheim Random Prime DNA Labeling kit (Indianapolis, Ind.) was used to generate [P^32]-radiolabeled probes. A full-length double-stranded HBV genome was used as a template for all radiolabeled probes. […]

[2] = ALT in patients on treatment; format: in vivo, human
Procedure: (§5) Patient A, a person was initially referred for evaluation of thrombocytopenia and hepatosplenomegaly. At this time the patient had abnormal LFT's (ALT 67 U/L, normal <55) and the HBV DNA was 61 pg/ml (231 days prior to the start of treatment). The patient was HBsAg and HBeAg positive. The ALT's fluctuated between 50-70 IU/L from (−231 to −35 days pretreatment). ADV was commenced on Day 0 in a clinical trial on 30 mg/day. HBV DNA levels were reduced with ADV treatment. The ADV treatment was reduced to 10 mg/day (144 days post-treatment). There was a problem with the randomization treatment protocol. The patient was on antiviral treatment for 1 month only during the second year of the treatment period. The study was completed on Day 679 post ADV treatment. The patient was not on ADV treatment until the open label ADV was recommenced on Day 875 from the start of the initial ADV treatment. This second period of ADV treatment was given for 108 days (day 983 post initial ADV treatment). […] At Day 983, ADV treatment was stopped and the patient was treated with LMV.
(§6) Patient B is a liver transplant patient. The patient has been on both sequential and combination antiviral therapy including HBIG, FCV+HBIG, LMV+HBIG, LMV, LMV+GCV, LMV+FCV+GCV, LMV+GCV and finally LMV+ADV. The patient has been on long term ADV+LMV treatment for over 795 days. Patient C, is a person. Prior to ADV treatment the patient had abnormal LFT's (ALT 240 IU/L, normal <55) and the HBV DNA was 2×10^7 copies/ml. ADV was commenced on Day 0 in a clinical trial on 10 mg/day for two years. The average ALT during the two year clinical trial period ws 114 IU/L. However, the ALT was rising and at 630 days after the start of ADV treatment the ALT remained high 407 IU/L. Open label ADV was commenced on Day 668 from the start of the initial ADV treatment. This second period of ADV treatment was given for […]. […] The peak ALT during open label ADV treatment was 517 IU/L (Day 738). The next day (Day 739), ADV treatment was stopped and the patient was treated with LMV.

HBV rt N236T/N238D = assay: In vitro drug susceptibility, recombinant HBV/baculovirus in HepG2 cells, rt N236T/N238D; format: cell-based, hepatitis B virus
Procedure: as §1, §2, §4

HBV [3] = settings: phase II studies, 30 mg daily dose, over 12 weeks; cited from earlier work
HBV [4] = assay: Hepatitis B viral DNA levels in patients on treatment (capture hybridization assay); format: in vivo, human; settings: for HBV DNA copies/ml: open label ADV
Procedure: as §5, §6
Hepatitis B surface antigen (HBsAg), hepatitis B e antigen (HBeAg), anti-HBe and hepatitis B core antigen (HBcAg) specific IgG and IgM were measured using commercially available immunoassays (Abbott Laboratories, North Chicago, Ill., USA). Hepatitis B viral DNA levels were measured using a capture hybridization assay according to the manufacturer's directions (Digene Hybrid Capture II, Digene Diagnostics Inc., Beltsville, Md.). The manufacturers stated cut-off for detecting HBV viremia in clinical specimens was 0.7×10^6 copies/ml or 2.5 pg/ml, [Hendricks et al., Am J Clin Pathol 104: 537-46, 1995]. HBV DNA levels can also be quantitated using other commercial kits such as Cobas amplification HBV monitor kit (Roche).

In the case of `Nc1ccn([C@@H]2CS[C@H](CO)O2)c(=O)n1` [Lamivudine, (-)-β-2'-deoxy-3'-thiacytidine], the “In vitro Susceptibility IC50 (fold change from wild-type), Southern Blot” value [1] is reported as 1 fold, the “In vitro Susceptibility IC50 (fold change from wild-type), Southern Blot” value (HBV rt L180M/M204V) is reported as >2500 fold and the “In vitro Susceptibility IC50 (fold change from wild-type), Southern Blot” value (HBV rt A181T/N236T/N238D; rt A181T/N236T/N238D) is reported as >100 fold. It also gave an ALT ([2]; Patient B, day -8 (S6), pre-ADV on LMV) of 427 IU/L.

In the case of `Nc1ncnc2c1ncn2CCOCP(=O)(O)O` [Adefovir, 9-[phosphonyl-methoxyethyl]-adenine], the “In vitro Susceptibility IC50 (fold change from wild-type), Real-time PCR” value ([1]; Real-time PCR) is reported as 1 fold, the “In vitro Susceptibility IC50 (fold change from wild-type), Southern Blot” value [1] is reported as 1 fold and the “In vitro Susceptibility IC50 (fold change from wild-type), Southern Blot” value (HBV rt L180M/M204V) is reported as 0.9 fold. The “In vitro Susceptibility IC50 (fold change from wild-type), Real-time PCR” value (HBV rt A181T/N236T/N238D; Real-time PCR, rt A181T/N236T/N238D) was 5.1 fold, the “In vitro Susceptibility IC50 (fold change from wild-type), Southern Blot” value (HBV rt A181T/N236T/N238D; rt A181T/N236T/N238D) was 7.3 fold and the “In vitro Susceptibility IC50 (fold change from wild-type), Real-time PCR” value (HBV rt N236T/N238D; Real-time PCR, rt N236T/N238D) was 23 fold.

For `CC(C)(C)C(=O)OCOP(=O)(COCCn1cnc2c(N)ncnc21)OCOC(=O)C(C)(C)C` [ADV, adefovir dipivoxil], the “mean decrease in viremia” value (HBV [3]) is given as 4 log10, the “fold increase in IC50” value (HBV rt A181T/N236T/N238D; rtA181T also present (triple mutant), readout not stated) is given as “five” and the “HBV DNA levels” value (HBV [4]; Patient A, ADV commenced Day 0, 30 mg/day) is given as “reduced”. The “HBV DNA copies/ml” value (HBV [4]; Patient A, day 904 post-ADV treatment) was 1.55 × 10^6 copies/ml, the “HBV DNA copies/ml” value (HBV [4]; Patient A, day 932) was 2.97 × 10^6 copies/ml and the “HBV DNA copies/ml” value (HBV [4]; Patient A, day 959) was 1.76 × 10^6 copies/ml. For the same compound, the “HBV DNA copies/ml” value (HBV [4]; Patient A, day 983 (end ADV)) was 1.64 × 10^6 copies/ml, the “HBV DNA copies/ml” value (HBV [4]; Patient C, day 701) was 1.5 × 10^7 copies/ml and the “HBV DNA copies/ml” value (HBV [4]; Patient C, day 730) was 3.7 × 10^6 copies/ml. For the same compound, the ALT ([2]; Patient A, open label ADV, day 983 (end ADV)) was 65 IU/L, the ALT ([2]; Patient C, ADV 10 mg/day clinical trial, day 29) was 160 IU/L and the ALT ([2]; Patient C, ADV 10 mg/day clinical trial, day 630) was 407 IU/L. The ALT ([2]; Patient C, open label ADV, day 701) was 226 IU/L, the ALT ([2]; Patient C, open label ADV, day 730) was 361 IU/L and the “ALT (peak during open label ADV)” value ([2]; Patient C, open label ADV, day 738) was 517 IU/L. For the same compound, the “average ALT” value ([2]; Patient C, two year clinical trial period, ADV 10 mg/day) was 114 IU/L and the “fold increase in IC50” value (HBV rt N236T/N238D; rt N236T/N238D mutation, readout not stated) was “twenty-three”.
